From ChEMBL document CHEMBL5136985, “Natural and synthetic β-carboline as a privileged antifungal scaﬀolds” (Eur J Med Chem, 2022)
In brackets after ≈: the same amount, converted by molar mass.

Experiments:
[1] = test system: Candida albicans; assay: Antifungal activity against Candida albicans incubated for 24 hrs by TTC staining method; type: functional
[2] = test system: Botryosphaeria berengeriana; assay: Antifungal activity against Physalospora pyricola relative to control; type: functional
[3] = test system: Bipolaris maydis; assay: Antifungal activity against Bipolaris maydis assessed as inhibition rate of fungal growth at 50 mg/kg relative to control; type: functional
[4] = test system: Botryosphaeria berengeriana; assay: Antifungal activity against Physalospora pyricola assessed as inhibition rate of fungal growth at 50 mg/kg relative to control; type: functional
[5] = test system: Bipolaris oryzae; assay: Antifungal activity against Bipolaris oryzae; type: functional, organism-based
[6] = test system: Alternaria solani; assay: Antifungal activity against Alternaria solani assessed as inhibition rate of fungal growth at 50 mg/kg relative to control; type: functional
[7] = test system: Bipolaris maydis; assay: Antifungal activity against Bipolaris maydis relative to control; type: functional; parameters: concentration or dose not given beside the values
[8] = test system: Bipolaris oryzae; assay: Antifungal activity against Bipolaris oryzae incubated for 7 days; type: functional; conditions: 168 h, time 7 day
[9] = test system: Botrytis cinerea; assay: Antifungal activity against Botrytis cinerea; type: functional, organism-based
[10] = test system: Gaeumannomyces graminis; assay: Antifungal activity against Gaeumannomyces graminis; type: functional, organism-based
[11] = test system: Alternaria solani; assay: Antifungal activity against Alternaria solani relative to control; type: functional; parameters: concentration or dose not given beside the values
[12] = test system: Cryptococcus deuterogattii; assay: Antifungal activity against Cryptococcus gattii VGII incubated for 24 to 48 hrs by 96-well plate method; type: functional, Cryptococcus gattii species complex; conditions: time 24-48 hrs
[13] = test system: Cryptococcus neoformans; assay: Antifungal activity against Cryptococcus neoformans incubated for 24 to 48 hrs by 96-well plate method; type: functional; conditions: time 24-48 hrs
[14] = test system: Candida albicans; assay: Antifungal activity against Candida albicans incubated for 24 to 48 hrs by 96-well plate method; type: functional; conditions: time 24-48 hrs
[15] = test system: Fusarium solani; assay: Antifungal activity against Fusarium solani incubated for 72 hrs; type: functional, organism-based; conditions: time 72 hrs
[16] = test system: Fusarium solani; assay: Antifungal activity against Fusarium solani relative to control; type: functional
[17] = test system: Mucor hiemalis; assay: Antifungal activity against Mucor hiemalis by 96-well plate method; type: functional
[18] = test system: Saccharomyces cerevisiae; assay: Antifungal activity against Saccharomyces cerevisiae assessed as diameter of zone inhibition at 100 ug per disk incubated for 24 hrs; type: functional; conditions: read-out: DIZ
[19] = test system: Phyllosticta citricarpa; assay: Antifungal activity Phyllosticta citricarpa against assessed as diameter of zone inhibition at 100 ug per disk incubated for 24 hrs; type: functional; conditions: read-out: DIZ
[20] = test system: Colletotrichum gloeosporioides; assay: Antifungal activity against Colletotrichum gloeosporioides assessed as diameter of zone inhibition at 100 ug per disk incubated for 24 hrs; type: functional; conditions: read-out: DIZ

O=[N+]([O-])c1cccc(-c2nc(-c3n[nH]c(=S)o3)cc3c2[nH]c2ccccc23)c1
MIC [1]: 3.1 µg/mL (≈ 7.96 µM)

CC1NC(C(=O)N/N=C/c2ccc(Cl)c(Cl)c2)Cc2c1[nH]c1ccccc21 (configuration not stated)
Activity [2]: 97% | inhibition in vivo at 50 mg/kg [3]: 80% | inhibition in vivo at 50 mg/kg [4]: 97%

CCCCCN1CCc2c([nH]c3ccccc23)C1
EC50 [5]: 110 µg/mL (≈ 454 µM)

Cc1nc(/C=C/C(=O)O)cc2c1[nH]c1ccccc12
inhibition in vivo at 50 mg/kg [6]: 10.5% | Activity [7]: 9.8% | inhibition in vivo at 50 mg/kg [3]: 9.8%

CCCCCCCCN1CCc2c([nH]c3ccccc23)C1
MIC [8]: 28 µg/mL (≈ 98.4 µM)

COC(=O)c1cc2c([nH]c3ccccc32)c(C(N)=O)n1
EC50 [9]: 14.2 µM | EC50 [10]: 0.45 µM

Cc1nccc2c1[nH]c1c([N+](=O)[O-])cccc12
Activity [11]: 88.9% | Activity [7]: 94.7% | MIC [12]: 40 µg/mL (≈ 176 µM) | MIC [13]: 40 µg/mL (≈ 176 µM) | MIC [14]: 40 µg/mL (≈ 176 µM)

CC(=O)Oc1ccc2c(c1)c1ccnc3ccc(=O)n2c31
inhibition (INH) [15]: 86% | Activity [16]: 86%

CC(C)CCCC(=O)c1nc(C(=O)O)cc2c1[nH]c1ccccc12
MIC [17]: 8.3 µg/mL (≈ 25.6 µM)

C=Cc1nc(C(=O)O)cc2c1[nH]c1ccccc12
zone of inhibition at 100 µg/disc [18]: 9 mm | zone of inhibition at 100 µg/disc [19]: 17 mm | zone of inhibition at 100 µg/disc [20]: 16 mm
